Experimental data taken from patent US4822786A, “Cephalosporin compounds, and antibacterial agents” (Kaken Pharmaceutical Co., Ltd., priority 1986, dated 1989).
Values after ≈ are worked out from the molar mass of the structure shown. Like-named read-outs stand apart in the source and are kept apart here.

Key:
[1] = system: Pseudomonas aeruginosa Y-1; experiment: minimum inhibitory concentration, agar plate dilution method; type: cell-based
[2] = system: Serratia marcescens No. 16-2; experiment: as above; type: cell-based
[3] = system: Acinetobacter calcoaceticus No. 4; experiment: as above; type: cell-based
[4] = system: Enterobacter cloacae Nek 39; experiment: as above; type: cell-based
[5] = system: Staphyloccocus aureus Smith; experiment: infection-preventive effects in mice (intraperitoneal infection, survival); type: in vivo, JCL:JCR type male mice; settings: Staphylococcus aureus, ip, 168 h; S. aureus Smith, 7.7 × 10^7 cells/mouse i.p., no mucin; compound hypodermically 1 hour after infection; 7-day survival
[6] = system: Pseudomonas aeruginosa K-13; experiment: minimum inhibitory concentration, agar plate dilution method; type: cell-based
[7] = system: Pseudomonas cepacia 23; experiment: as above; type: cell-based
[8] = system: Pseudomonas aeruginosa Y-1; experiment: infection-preventive effects in mice (intraperitoneal infection, survival); type: in vivo, JCL:JCR type male mice; settings: Y1, ip, 168 h
[9] = system: Escherichia coli ML 4707; experiment: minimum inhibitory concentration, agar plate dilution method; type: cell-based; settings: ML4707, E. coli ML 4707, inoculated amount of cells 10^6 CFU/ml, Muller-Hinton agar, read-out: minimum inhibitory concentration (M.I.C.)
[10] = system: Escherichia coli ML 4707; experiment: infection-preventive effects in mice (intraperitoneal infection, survival); type: in vivo, JCL:JCR type male mice; settings: ML4707, ip, 168 h, E. coli ML 4707, 1.1 × 10^6 cells/mouse i.p., no mucin, compound hypodermically 1 hour after infection, 7-day survival
[11] = system: Proteus vulgaris No. 33; experiment: minimum inhibitory concentration, agar plate dilution method; type: cell-based
[12] = system: Klebsiella pneumoniae No. 42; experiment: as above; type: cell-based
[13] = system: Pseudomonas aeruginosa K-13; experiment: infection-preventive effects in mice (intraperitoneal infection, survival); type: in vivo, JCL:JCR type male mice; settings: K13, ip, 168 h
[14] = system: Staphylococus aureus FDA 209-P JC-1; experiment: minimum inhibitory concentration, agar plate dilution method; type: cell-based; settings: Staphylococcus aureus, FDA209; S. aureus FDA 209-P JC-1; inoculated amount of cells 10^6 CFU/ml; Muller-Hinton agar; read-out: minimum inhibitory concentration (M.I.C.)
[15] = Y1, P. aeruginosa Y-1, inoculated amount of cells 10^6 CFU/ml, Muller-Hinton agar, read-out: minimum inhibitory concentration (M.I.C.)
[16] = NO.162, S. marcescens No. 16-2, inoculated amount of cells 10^6 CFU/ml, Muller-Hinton agar, read-out: minimum inhibitory concentration (M.I.C.)
[17] = A. calcoaceticus No. 4, inoculated amount of cells 10^6 CFU/ml, Muller-Hinton agar, read-out: minimum inhibitory concentration (M.I.C.)
[18] = NEK39, E. cloacae Nek 39, inoculated amount of cells 10^6 CFU/ml, Muller-Hinton agar, read-out: minimum inhibitory concentration (M.I.C.)
[19] = K13, P. aeruginosa K-13, inoculated amount of cells 10^6 CFU/ml, Muller-Hinton agar, read-out: minimum inhibitory concentration (M.I.C.)
[20] = Burkholderia cepacia, P. cepacia 23, inoculated amount of cells 10^6 CFU/ml, Muller-Hinton agar, read-out: minimum inhibitory concentration (M.I.C.)
[21] = P. aeruginosa Y-1, 4.0 × 10^5 cells/mouse i.p., with mucin, compound hypodermically 1 hour after infection, 7-day survival, read-out: ED50
[22] = K. pneumoniae No. 42, inoculated amount of cells 10^6 CFU/ml, Muller-Hinton agar, read-out: minimum inhibitory concentration (M.I.C.)
[23] = P. aeruginosa K-13, 3.0 × 10^4 cells/mouse i.p., with mucin, compound hypodermically 1 hour after infection, 7-day survival, read-out: ED50
[24] = P. vulgaris No. 33, inoculated amount of cells 10^6 CFU/ml, Muller-Hinton agar, read-out: minimum inhibitory concentration (M.I.C.)

Row | MIC [9] [µg/mL] | MIC [14] [µg/mL] | MIC [1, 15] [µg/mL] | MIC [2, 16] [µg/mL] | MIC [3, 17] [µg/mL] | MIC [4, 18] [µg/mL] | MIC [6, 19] [µg/mL] | MIC [7, 20] [µg/mL] | MIC [12, 22] [µg/mL] | MIC [11, 24] [µg/mL] | SMILES | ED50 [5] [mg/kg] | ED50 [10] [mg/kg] | ED50 [8, 21] [mg/kg] | ED50 [13, 23] [mg/kg] | further results
1 | 0.1 (≈ 0.137 µM) | 12.5 (≈ 17.1 µM) | 0.39 (≈ 0.534 µM) | 0.39 (≈ 0.534 µM) | 12.5 (≈ 17.1 µM) | 0.39 (≈ 0.534 µM) | 0.2 (≈ 0.274 µM) | 0.2 (≈ 0.274 µM) | 0.2 (≈ 0.274 µM) | 0.1 (≈ 0.137 µM) | Cc1cc(SCC2=C(C(=O)O)N3C(=O)[C@@H](NC(=O)/C(=N\OCc4cc(=O)c(O)cn4O)c4csc(N)n4)[C@H]3SC2)n2nc(C(=O)O)nc2n1 [Example 4, (6R, 7R)-7-[(Z)-2-(2-aminothiazol-4-yl)-2-(1,5-dihydroxy-4-pyridon-2-ylmethoxyimino)acetamido]-3(2-carboxy-5-methyl-s-triazolo[1,5-a]pyrimidin-7-ylthiomethyl)-3-cephem-4-carboxylic acid] | 8.7 | 0.16 | 4 | 12 | –
2 | ≤ 0.025 | 50 (≈ 78.5 µM) | 0.1 (≈ 0.157 µM) | 0.39 (≈ 0.613 µM) | 1.56 (≈ 2.45 µM) | 0.39 (≈ 0.613 µM) | 0.1 (≈ 0.157 µM) | 0.05 (≈ 0.0785 µM) | ≤ 0.025 | ≤ 0.025 | Cn1nnnc1SCC1=C(C(=O)O)N2C(=O)[C@@H](NC(=O)/C(=N\OCc3cc(=O)c(O)cn3O)c3csc(N)n3)[C@H]2SC1 [Example 5, (6R, 7R)-7-[(Z)-2-(2-aminothiazol-4-yl)-2-(1,5-dihydroxy-4-pyridon-2-ylmethoxyimino)acetamido]-3(1-methyl-1H-tetrazol-5-ylthiomethyl)-3-cephem-4carboxylic acid] | – | 0.12 | – | 18.9 | –
3 | ≤ 0.025 | 25 (≈ 37.5 µM) | 0.1 (≈ 0.15 µM) | 0.39 (≈ 0.585 µM) | 3.13 (≈ 4.69 µM) | 0.78 (≈ 1.17 µM) | 0.2 (≈ 0.3 µM) | 0.1 (≈ 0.15 µM) | 0.05 (≈ 0.075 µM) | 0.05 (≈ 0.075 µM) | Nc1nc(/C(=N/OCc2cc(=O)c(O)cn2O)C(=O)N[C@@H]2C(=O)N3C(C(=O)O)=C(CSc4nnnn4CCO)CS[C@H]23)cs1 [Example 6] | 42 | 0.13 | 1.4 | 4.6 | –

Continued, molecule first:

Row | SMILES | MIC [9] [µg/mL] | MIC [14] [µg/mL] | MIC [1, 15] [µg/mL] | MIC [2, 16] [µg/mL] | MIC [3, 17] [µg/mL] | MIC [4, 18] [µg/mL] | MIC [6, 19] [µg/mL] | MIC [7, 20] [µg/mL] | MIC [12, 22] [µg/mL] | MIC [11, 24] [µg/mL] | ED50 [5] [mg/kg] | ED50 [10] [mg/kg] | ED50 [8, 21] [mg/kg] | ED50 [13, 23] [mg/kg] | further results
4 | CC(C)(O/N=C(\C(=O)N[C@@H]1C(=O)N2C(C(=O)[O-])=C(C[n+]3ccccc3)CS[C@H]12)c1csc(N)n1)C(=O)O [CAZ, ceftazidime, reference compound] | 0.2 (≈ 0.366 µM) | 12.5 (≈ 22.9 µM) | – | – | – | – | – | – | – | – | 17 | 0.73 | – | – | MIC ([1]; Y1, read-out: minimum inhibitory concentration (M.I.C.)): 1.56 µg/mL (≈ 2.85 µM); MIC ([2]; NO.162, read-out: minimum inhibitory concentration (M.I.C.)): 1.56 µg/mL (≈ 2.85 µM); MIC ([3]; NO.4, read-out: minimum inhibitory concentration (M.I.C.)): 6.25 µg/mL (≈ 11.4 µM); MIC ([4]; NEK39, read-out: minimum inhibitory concentration (M.I.C.)): 1.56 µg/mL (≈ 2.85 µM); MIC ([6]; K13, read-out: minimum inhibitory concentration (M.I.C.)): 3.13 µg/mL (≈ 5.73 µM); MIC ([7]; Burkholderia cepacia, 23, read-out: minimum inhibitory concentration (M.I.C.)): 1.56 µg/mL (≈ 2.85 µM); ED50 [8]: 16 mg/kg; MIC ([11]; NO.33, read-out: minimum inhibitory concentration (M.I.C.)): 0.1 µg/mL (≈ 0.183 µM); MIC ([12]; NO.42, read-out: minimum inhibitory concentration (M.I.C.)): 0.39 µg/mL (≈ 0.714 µM); ED50 [13]: 31 mg/kg
5 | NC(=O)c1cc[n+](CC2=C(C(=O)O)N3C(=O)[C@@H](NC(=O)[C@@H](c4ccccc4)S(=O)(=O)[O-])[C@H]3SC2)cc1 [CFS, cefsulodin, reference compound] | 50 (≈ 93.9 µM) | 3.13 (≈ 5.88 µM) | 1.56 (≈ 2.93 µM) | > 100 | 50 (≈ 93.9 µM) | > 100 | 3.13 (≈ 5.88 µM) | > 100 | > 100 | – | – | > 100 | 13 | 39 | –
6 | CO/N=C(\C(=O)N[C@@H]1C(=O)N2C(C(=O)O)=C(COC(C)=O)CS[C@H]12)c1csc(N)n1 [CTX, cefotaxime, reference compound] | ≤ 0.025 | 3.13 (≈ 6.87 µM) | 12.5 (≈ 27.4 µM) | 6.25 (≈ 13.7 µM) | 25 (≈ 54.9 µM) | 3.13 (≈ 6.87 µM) | 25 (≈ 54.9 µM) | 3.13 (≈ 6.87 µM) | 0.1 (≈ 0.22 µM) | 0.05 (≈ 0.11 µM) | 3.1 | 0.095 | > 200 | > 100 | –
7 | C[n+]1ccc(SCC2=C(C(=O)[O-])N3C(=O)[C@@H](NC(=O)/C(=N\OCc4cc(=O)c(O)cn4O)c4csc(N)n4)[C@H]3SC2)cc1 [Example 18, (6R, 7R)-7-[(Z)-2-(2-aminothiazol-4-yl)-2-(1,5-dihydroxy-4-pyridon-2-ylmethoxyimino)acetamido]-3-(1-methylpyridinium-4-ylthiomethyl)-3-cephem-4-carboxylat] | ≤ 0.025 | 6.25 (≈ 9.68 µM) | 0.2 (≈ 0.31 µM) | 0.78 (≈ 1.21 µM) | 3.13 (≈ 4.85 µM) | 0.39 (≈ 0.604 µM) | 0.78 (≈ 1.21 µM) | 0.2 (≈ 0.31 µM) | 0.05 (≈ 0.0774 µM) | 0.1 (≈ 0.155 µM) | 2.9 | 0.034 | 2 | 13 | –
8 | C[n+]1ccc(SCC2=C(C(=O)[O-])N3C(=O)[C@@H](NC(=O)/C(=N\OCc4cc(=O)c(O)cn4O)c4csc(N)n4)[C@H]3SC2)c2c1CCC2 [Example 19, (6R, 7R)-7-[(Z)-2-(2-aminothiazol-4-yl)-2-(1,5-dihydroxy-4-pyridon-2-ylmethoxyimino)acetamido]-3-(2,3-cyclopenteno-1-methylpyridinium-4-ylthiomethy)-3-cephem-4-carboxylate] | 0.05 (≈ 0.0729 µM) | 12.5 (≈ 18.2 µM) | 0.78 (≈ 1.14 µM) | 1.56 (≈ 2.27 µM) | 6.25 (≈ 9.11 µM) | 0.2 (≈ 0.292 µM) | 1.56 (≈ 2.27 µM) | 0.39 (≈ 0.569 µM) | 0.1 (≈ 0.146 µM) | 0.2 (≈ 0.292 µM) | – | 0.077 | 7.8 | 9.6 | –
